Where two headings read alike, the source gives them in different places.
How the values were obtained:
HCV replicon genotype 1b = test: HCV replicon assay, genotype 1b (cell ELISA for NS3/4A); assay type: cell-based, hepatitis C virus
Protocol: (§1) The HCV NS5B inhibitory activity of the present compounds may be tested using assays known in the art. The HCV NS5B polymerase inhibitors described herein have activities in a genotype 1b replicon assay as described in the Examples. The assay is performed by incubating a replicon harboring cell-line in the presence of inhibitor for a set period of time and measuring the effect of the inhibitor on HCV replicon replication either directly by quantifying replicon RNA level, or indirectly by measuring enzymatic activity of a co-encoded reporter enzyme such as luciferase or β-lactamase. By performing a series of such measurements at different inhibitor concentrations, the effective inhibitory concentration of the inhibitor (EC50 or EC90) is determined. See Jan M. Vrolijk et al., A replicons-based bioassay for the measurement of interferons in patients with chronic hepatitis C, 110 J. VIROLOGICAL METHODS 201 (2003). Such assays may also be run in an automated format for high through-put screening. See Paul Zuck et al., A cell-based β-lactamase reporter gene assay for the identification of inhibitors of hepatitis C virus replication, 334 ANALYTICAL BIOCHEMISTRY 344 (2004).
(§2) Measurement of inhibition by compounds was performed using the HCV replicon system. Several different replicons encoding different HCV genotypes or mutations were used. In addition, potency measurements were made using different formats of the replicon assay, including different ways of measurements and different plating formats. See Jan M. Vrolijk et al., A replicons-based bioassay for the measurement of interferons in patients with chronic hepatitis C, 110 J. VIROLOGICAL METHODS 201 (2003); Steven S. Carroll et al., Inhibition of Hepatitis C Virus RNA Replication by 2′-Modified Nucleoside Analogs, 278(14) J. BIOLOGICAL CHEMISTRY 11979 (2003). However, the underlying principles are common to all of these determinations, and are outlined below.
(§3) Stable neomycin phosphotransferase encoding replicons-harboring cell lines were used, so all cell lines were maintained under G418 selection prior to the assay. Potency was deteremined using a cell ELISA assay with an antibody to the replicons encoded NS3/4a protease. See Caterina Trozzi et al., In Vitro Selection and Characterization of Hepatitis C Virus Serine Protease Variants Resistant to an Active-Site Peptide Inhibitor, 77(6) J. Virol. 3669 (2003). To initiate an assay, replicon cells were plated in the presence of a dilution series of test compound in the absence of G418. Typically, the assays were performed in a 96-well plate formate for manual operation, or a 384-well plate format for automated assay. Replicon cells and compound were incubated for 96 hours. At the end of the assay, cells were washed free of media and compound, and the cells were then lysed. RNA was quantified indirectly through detection of replicon-encoded NS3/4A protein levels, through an ELISA-based assay with an antibody specific for NS3/4A. IC50 determinations were calculated as a percentage of a DMSO control by fitting the data to a four-parameter fit function and the data obtained is provided in the table below.
(§4) Data for selected compounds of the present invention was obtained for genotypes 1a and 1b using this method and is provided in the table below: […]

HCV replicon genotype 1a = test: HCV replicon assay, genotype 1a (cell ELISA for NS3/4A); assay type: cell-based, hepatitis C virus
Protocol: as §1, §2, §3, §4

[1] = Hepatitis C virus, 96 h, read-out: 1b IC50 (nM), HCV genotype 1b replicon cells, 96 hours incubation, NS3/4A ELISA readout, % of DMSO control
[2] = Hepatitis C virus, 96 h, read-out: 1a IC50 (nM), HCV genotype 1a replicon cells, 96 hours incubation, NS3/4A ELISA readout, % of DMSO control
[3] = read-out: 1b IC50, HCV genotype 1b replicon cells, 96 hours incubation, NS3/4A ELISA readout, % of DMSO control
[4] = read-out: 1a IC50, HCV genotype 1a replicon cells, 96 hours incubation, NS3/4A ELISA readout, % of DMSO control

**Q.** How did the IC50 (HCV replicon genotype 1b; [1]) turn out when `CNC(=O)c1c(-c2ccc(F)cc2)oc2cc(N(C)S(C)(=O)=O)c([C@@H]3CCCN(C(=O)c4nc5ccc(F)cc5[nH]4)C3)cc12` [Example 76, 5-{1-[(6-fluoro-1H-benzimidazol-2-yl)carbonyl]piperidin-3-yl}-2-(4-fluorophenyl)-N-methyl-6-[methyl(methylsulfonyl)amino]-1-benzofuran-3-carboxamide] was run?
**A.** 9.96 nM

**Q.** And the IC50 (HCV replicon genotype 1a; [2])?
**A.** 49.4 nM

**Q.** Which results are given for `CNC(=O)c1c(-c2ccc(F)cc2)oc2cc(N(C)S(C)(=O)=O)c([C@H]3CCCN(C(=O)c4c(C)c5cc(F)ccc5n4C)C3)cc12` [Example 86, 5-{(3R)-1-[(5-fluoro-1,3-dimethyl-1H-indol-2-yl)carbonyl]piperidin-3-yl}-2-(4-fluorophenyl)-N-methyl-6-[methyl(methylsulfonyl)amino]-1-benzofuran-3-carboxamide]?
**A.** IC50 (HCV replicon genotype 1b; [1]): 115 nM; IC50 (HCV replicon genotype 1a; [2]): 234 nM

**Q.** Which IC50 (HCV replicon genotype 1b; [3]) does the source give for `CNC(=O)c1c(-c2ccc(F)cc2)oc2cc(N(C)S(C)(=O)=O)c([C@@H]3CCCN(C(=O)C4CC4c4ccccn4)C3)cc12` (stereo partly drawn) [Example 60, 2-(4-fluorophenyl)-N-methyl-6-[methyl(methylsulfonyl)amino]-5-{1-[(2-pyridin-2-ylcyclopropyl)carbonyl]piperidin-3-yl}-1-benzofuran-3-carboxamide] here?
**A.** 40.3 nM

**Q.** And the IC50 (HCV replicon genotype 1a; [4])?
**A.** 116 nM

**Q.** How did the IC50 (HCV replicon genotype 1b; [1]) turn out when `CNC(=O)c1c(-c2ccc(F)cc2)oc2cc(N(C)S(C)(=O)=O)c([C@H]3CN(c4nc5ccccc5o4)CCO3)cc12` (single isomer, unassigned) [Example 10, 5-(4-(benzo[d]oxazol-2-yl)morpholin-2-yl)-2-(4-fluorophenyl)-N-methyl-6-(N-methylmethylsulfonamido)benzofuran-3-carboxamide] was run?
**A.** 26.6 nM

**Q.** What about the IC50 (HCV replicon genotype 1a; [2]) of the same compound?
**A.** 16 nM

**Q.** Which results are given for `CNC(=O)c1c(-c2ccc(F)cc2)oc2cc(N(C)S(C)(=O)=O)c([C@@H]3CCCN(C(=O)C4C5COCC54)C3)cc12` (stereo in doubt) [Example 59, 2-(4-fluorophenyl)-N-methyl-6-[methyl(methylsulfonyl)amino]-5-[1-(3-oxabicyclo[3.1.0]hex-6-ylcarbonyl)piperidin-3-yl]-1-benzofuran-3-carboxamide]?
**A.** IC50 (HCV replicon genotype 1b; [1]): 120 nM; IC50 (HCV replicon genotype 1a; [2]): 308 nM

**Q.** Which IC50 (HCV replicon genotype 1b; [1]) does the source give for `CNC(=O)c1c(-c2ccc(F)cc2)oc2cc(N(C)S(C)(=O)=O)c([C@@H]3CCCN(S(=O)(=O)c4cccc5nonc45)C3)cc12` [Example 120, 5-[(3S)-1-(2,1,3-benzoxadiazol-4-ylsulfonyl)piperidin-3-yl]-2-(4-fluorophenyl)-N-methyl-6-[methyl(methylsulfonyl)amino]-1-benzofuran-3-carboxamide] here?
**A.** 8.37 nM

**Q.** And the IC50 (HCV replicon genotype 1a; [2])?
**A.** 22.4 nM

**Q.** How did the IC50 (HCV replicon genotype 1b; [3]) turn out when `CNC(=O)c1c(-c2ccc(F)cc2)oc2cc(N(C)S(C)(=O)=O)c([C@@H]3CCN(C(=O)c4cc5c(F)cccc5n4C)C3)cc12` (single isomer, unassigned) [Example 15, 5-(1-(4-fluoro-1-methyl-1H-indole-2-carbonyl)pyrrolidin-3-yl)-2-(4-fluorophenyl)-N-methyl-6-(N-methylmethylsulfonamido)benzofuran-3-carboxamide] was run?
**A.** 11.2 nM

**Q.** And the IC50 (HCV replicon genotype 1a; [4])?
**A.** 125 nM

**Q.** Which IC50 (HCV replicon genotype 1b; [1]) does the source give for `CNC(=O)c1c(-c2ccc(F)cc2)oc2cc(N(C)S(C)(=O)=O)c([C@@H]3CCCN(C(=O)c4nc5ccccc5s4)C3)cc12` [Example 69, 5-[1-(1,3-benzothiazol-2-ylcarbonyl)piperidin-3-yl]-2-(4-fluorophenyl)-N-methyl-6-[methyl(methylsulfonyl)amino]-1-benzofuran-3-carboxamide] here?
**A.** 22.8 nM

**Q.** And the IC50 (HCV replicon genotype 1a; [2])?
**A.** 74.4 nM

**Q.** What does the source list for `CNC(=O)c1c(-c2ccc(F)cc2)oc2cc(N(C)S(C)(=O)=O)c([C@H]3CCCN(C(=O)c4cc5cc(F)ccc5n4C)C3)cc12` [Example 85, 5-{(3R)-1-[(5-fluoro-1-methyl-1H-indol-2-yl)carbonyl]piperidin-3-yl}-2-(4-fluorophenyl)-N-methyl-6-[methyl(methylsulfonyl)amino]-1-benzofuran-3-carboxamide]?
**A.** IC50 (HCV replicon genotype 1b; [1]): 12.5 nM; IC50 (HCV replicon genotype 1a; [2]): 26 nM
